Test systems include A498; A549; ACHN; BT-549; HCT-15; IGROV-1; K562; LOX IMVI; MDA-MB-231; MDA-N; Malme-3M; NCI-H226; NCI-H522; RPMI-8226; SK-OV-3; SNB-19; SNB-75; SW-620; UACC-62.
Common to all, as to assay: DTP human tumour cell line panel, 48 h

The structures appear in SMILES notation.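 Five compound concentrations were applied to cells in 96-well plates for 48 hours; endpoints were derived by simple linear interpolation of the resulting dose-response curve. Abbreviation: GI50, concentration required for 50% inhibition of growth.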 Active and inactive are the calls of the source. Rule as the data show it: active = GI50 up to about 1.1 µM and inactive = higher. *1 amine or outer side, *2 acyl side, *3 side chain or, on linkers, in order; H or OH if unused. Where a SMILES comes first, the peptide text is derived from it. Bridges are numbered along the chain shown (N, C = ends). Roman numbers before positions name the chains, in order. [ ]: non-standard residue; d: D form. Actinocin(1to9) = Cc1c2oc3c(C)ccc(C(=O)[*:2])c3nc-2c(C(=O)[*:1])c(N)c1=O; NMeV = CN[CH](C(=O)O)C(C)C; Sar = CNCC(=O)O Bounds are passed on as bounds.

These results are taken from ChEMBL document CHEMBL1201862, “PubChem BioAssay data set” (2004).

For orientation: GI50 means the concentration giving 50% growth inhibition.

Take `CC(C)(C)c1cc2c(O)c(c1)Cc1cc(C(C#N)(Cc3ccc4ccccc4c3)Cc3ccc4ccccc4c3)cc(c1O)Cc1cc(C(C)(C)C)cc(c1O)Cc1cc(C(C#N)(Cc3ccc4ccccc4c3)Cc3ccc4ccccc4c3)cc(c1O)C2`: the GI50 in the test on A498 is > 100 µM (inactive); with A549, > 100 µM (inactive); with ACHN it was > 100 µM (inactive); in the test with BT-549 it was > 100 µM (inactive); with HCT-15 it was above 100 µM; with IGROV-1, > 100 µM (inactive). Further, the GI50 in the test on K562, in the test on LOX IMVI, in the test with MDA-MB-231, in the test with MDA-N, in the test on Malme-3M and in the test on NCI-H226 was > 100 µM (inactive) in each case. Moreover, the GI50 with NCI-H522, in the test on RPMI-8226, with SK-OV-3, with SNB-19, with SNB-75 and in the test on SW-620 was > 100 µM (inactive) each time. Further, in the test on UACC-62, the GI50 was > 100 µM (inactive).
With `COc1ccc(CC2NC(=O)C(NC(=O)c3c4nc5c(C(=O)NC6C(=O)NC(Cc7ccc(OC)cc7)C(=O)N7CCCC7C(=O)N(C)CC(=O)N(C)C(C(C)C)C(=O)OC6C)ccc(C)c5oc-4c(C)c(=O)c3N)C(C)OC(=O)C(C(C)C)N(C)C(=O)CN(C)C(=O)C3CCCN3C2=O)cc1` (stereo not given) (I: TY(Me)P[Sar][NMeV] / II: TY(Me)P[Sar][NMeV]; ester I:1-I:C, II:1-II:C; linker I:N-II:N via Actinocin(1to9); configuration not given here), the GI50 in the test on A498 is 0.00299 µM (active); in the test on A549, < 0.001 µM (active); in the test on ACHN it was < 0.001 µM (active); with BT-549, 0.01 µM (active); with HCT-15, 0.0579 µM; in the test with IGROV-1, < 0.001 µM (active). Moreover, the GI50 in the test with K562 was < 0.001 µM (active); in the test on LOX IMVI, < 0.001 µM (active); with MDA-MB-231 it was 0.0371 µM (active); in the test on MDA-N it was < 0.001 µM (active); in the test on Malme-3M, < 0.001 µM (active); in the test on NCI-H226 it was 0.0135 µM (active). The GI50 with NCI-H522 was < 0.001 µM (active); in the test with RPMI-8226 it was < 0.001 µM (active); in the test with SK-OV-3, 0.0116 µM (active); with SNB-19, < 0.001 µM (active); in the test with SNB-75 it was 0.00109 µM (active); with SW-620, < 0.001 µM (active). Besides, the GI50 with UACC-62 was < 0.001 µM (active).
`Nc1c(C(=O)c2ccc(Cl)cc2)[nH]c(Nc2ccc(Cl)cc2)c1C(=S)Nc1ccccc1`: the GI50 with A498 is 12.7 µM (inactive); in the test with A549, 3.21 µM (inactive); in the test on ACHN it was 2.21 µM (inactive); with BT-549 it was 2.93 µM (inactive); in the test on HCT-15 it was 4.01 µM; with IGROV-1, 4.15 µM (inactive). Also, the GI50 was 3.29 µM (inactive) with K562; 3.64 µM (inactive) with LOX IMVI; 4.55 µM (inactive) in the test with MDA-MB-231; 6.76 µM (inactive) with MDA-N; 8.34 µM (inactive) in the test on Malme-3M; 3.64 µM (inactive) with NCI-H226. For the same molecule, the GI50 in the test with NCI-H522 was 4.83 µM (inactive); in the test with RPMI-8226, 14.5 µM (inactive); with SK-OV-3, 6.52 µM (inactive); in the test with SNB-19 it was 4.36 µM (inactive); in the test on SNB-75 it was 3 µM (inactive); with SW-620 it was 6.43 µM (inactive). For the same molecule, the GI50 in the test on UACC-62 is 13.4 µM (inactive).
For the molecule `CC(=O)Oc1ccc2c(c1)CC[C@@H]1C2[C@@H](O[N+](=O)[O-])C[C@@]2(C)C1CC[C@@H]2O` (stereo not given in full), the GI50 in the test on A498 is 31.2 µM (inactive); in the test with A549 it was 37.3 µM (inactive); in the test on ACHN it was 61.1 µM (inactive); with BT-549, 62.4 µM (inactive); with HCT-15, 28.9 µM; in the test on IGROV-1, 55.3 µM (inactive). Also, the GI50 was 11.9 µM (inactive) with K562; 27.7 µM (inactive) in the test with LOX IMVI; 39.1 µM (inactive) with MDA-MB-231; 5.83 µM (inactive) with MDA-N; 32.1 µM (inactive) with Malme-3M; 48.8 µM (inactive) in the test on NCI-H226. For the same molecule, the GI50 is 21.1 µM (inactive) with NCI-H522; 21 µM (inactive) in the test with RPMI-8226; 62.5 µM (inactive) in the test on SK-OV-3; 35.6 µM (inactive) in the test with SNB-19; 45.7 µM (inactive) in the test on SNB-75; 35.5 µM (inactive) in the test on SW-620. Further, the GI50 in the test on UACC-62 is 26.5 µM (inactive).
`O=C(O)C(Br)C(Br)C(=O)O` (stereo not given): the GI50 with A498 is > 100 µM (inactive); in the test on A549, > 100 µM (inactive); in the test with ACHN it was > 100 µM (inactive); with BT-549 it was > 100 µM (inactive); with HCT-15, above 100 µM; in the test on IGROV-1 it was > 100 µM (inactive). The GI50 in the test with K562, in the test on LOX IMVI, with MDA-MB-231, with MDA-N, in the test on Malme-3M and in the test with NCI-H226 was > 100 µM (inactive) in each case. The GI50 with NCI-H522, with RPMI-8226, in the test with SK-OV-3, with SNB-19, in the test on SNB-75 and in the test on SW-620 was > 100 µM (inactive) throughout. Moreover, the GI50 with UACC-62 is > 100 µM (inactive).
With `[O-][S+]1SC(=S)C2C=CC=NC21` (stereo not given), the GI50 in the test on A498 is 27.6 µM (inactive); in the test on A549, 19.2 µM (inactive); in the test with ACHN it was 18.1 µM (inactive); in the test on BT-549 it was 19 µM (inactive); in the test on HCT-15, 17.3 µM; with IGROV-1, 20.1 µM (inactive). For the same molecule, the GI50 was 20.9 µM (inactive) in the test with K562; 14.9 µM (inactive) with LOX IMVI; 18.7 µM (inactive) in the test on MDA-MB-231; 14.7 µM (inactive) with MDA-N; 17.3 µM (inactive) with Malme-3M; 22.2 µM (inactive) in the test on NCI-H226. In addition, the GI50 with NCI-H522 is 14.3 µM (inactive); with RPMI-8226, 32.1 µM (inactive); in the test with SK-OV-3, 32.6 µM (inactive); in the test on SNB-19, 26.1 µM (inactive); with SNB-75, 18.7 µM (inactive); in the test on SW-620, > 100 µM (inactive). The GI50 with UACC-62 is 21.3 µM (inactive).
`CC[C@@H]1CN(C)[C@H]2Cc3c([nH]c4ccccc34)C(=O)C[C@H]1C2C(=O)OC` (stereo not given in full): the GI50 in the test with A498 is > 100 µM (inactive); with A549 it was > 100 µM (inactive); with ACHN, > 100 µM (inactive); in the test with BT-549, > 100 µM (inactive); in the test with HCT-15, above 100 µM; with IGROV-1, > 100 µM (inactive). For the same molecule, the GI50 in the test on K562, in the test on LOX IMVI, in the test on MDA-MB-231, in the test on MDA-N, in the test with Malme-3M and in the test on NCI-H226 was > 100 µM (inactive) in each case. Moreover, the GI50 with NCI-H522 is > 100 µM (inactive); in the test with RPMI-8226, > 88.5 µM (inactive); with SK-OV-3, > 100 µM (inactive); in the test with SNB-19, > 100 µM (inactive); in the test on SNB-75 it was > 91.4 µM (inactive); in the test on SW-620, > 100 µM (inactive). The GI50 with UACC-62 was > 100 µM (inactive).
For `Cn1c(=O)c2c(nc(C(=N)SCC(=O)O)n2C)n(C)c1=O`, the GI50 with A498 is 26.9 µM (inactive); in the test on A549 it was 39.5 µM (inactive); with ACHN, 41 µM (inactive); with BT-549 it was 41.1 µM (inactive); with HCT-15 it was 31.8 µM; in the test on IGROV-1 it was 47 µM (inactive). Further, the GI50 in the test with K562 is 27 µM (inactive); in the test with LOX IMVI, 48.1 µM (inactive); with MDA-MB-231 it was > 100 µM (inactive); in the test with MDA-N, 36.2 µM (inactive); with Malme-3M, 45.1 µM (inactive); in the test with NCI-H226, 58.9 µM (inactive). For the same molecule, the GI50 was 41.9 µM (inactive) in the test on NCI-H522; 42.2 µM (inactive) in the test on RPMI-8226; 61.8 µM (inactive) in the test with SK-OV-3; 52.7 µM (inactive) in the test on SNB-19; 41.2 µM (inactive) in the test with SNB-75; 52.1 µM (inactive) with SW-620. In addition, in the test on UACC-62, the GI50 was 34.4 µM (inactive).
In the case of `O=C1c2cccnc2-c2nccc3ccnc1c23`, the GI50 in the test on A498 is 5 µM (inactive); with A549, 1.6 µM (inactive); in the test on ACHN, 0.158 µM (active); in the test with BT-549, 1.43 µM (inactive); in the test with HCT-15, 0.366 µM; in the test on IGROV-1, 0.548 µM (active). Besides, the concentration for 50% growth inhibition (GI50) in the test on K562 was 0.0456 µM (active); in the test on LOX IMVI, 0.418 µM (active); with MDA-MB-231, 1.32 µM (inactive); in the test on MDA-N, 0.2 µM (active); with Malme-3M it was 0.853 µM (active); in the test with NCI-H226 it was 1.58 µM (inactive). Further, the GI50 is 0.163 µM (active) in the test on NCI-H522; 0.195 µM (active) in the test on RPMI-8226; 1.49 µM (inactive) in the test on SK-OV-3; 1.03 µM (active) in the test with SNB-19; 1.08 µM (active) in the test on SNB-75; 0.474 µM (active) with SW-620. Moreover, the GI50 in the test with UACC-62 is 0.601 µM (active).
Turning to `CCCC(=O)O[C@H]1C=C2C[C@@]34SS[C@]5(CC6=C[C@H](OC(C)=O)[C@@H]7O[C@@H]7[C@H]6N5C3=O)C(=O)N4[C@@H]2[C@H]2O[C@H]21`, the 50% growth inhibitory concentration (GI50) in the test with A498 was 0.0279 µM (active); in the test on A549, 0.0311 µM (active); with ACHN it was 0.0186 µM (active); in the test on BT-549, 0.021 µM (active); in the test on HCT-15 it was 0.0224 µM; with IGROV-1 it was 0.0168 µM (active). For the same molecule, the GI50 in the test on K562 was 0.00923 µM (active); in the test on LOX IMVI, 0.0208 µM (active); with MDA-MB-231, 0.0254 µM (active); in the test with MDA-N, 0.00817 µM (active); in the test with Malme-3M, 0.02 µM (active); with NCI-H226, 0.0766 µM (active). Moreover, the GI50 in the test with NCI-H522 is < 0.005 µM (active); in the test on RPMI-8226, 0.00524 µM (active); in the test on SK-OV-3, 0.0569 µM (active); in the test with SNB-19, 0.0126 µM (active); in the test with SNB-75 it was 0.0353 µM (active); in the test with SW-620, 0.00548 µM (active). The GI50 with UACC-62 is 0.0225 µM (active).
